According to article PMC9612222, “Comparative Evaluation of the Antiglycation and Anti-α-Glucosidase Activities of Baicalein, Baicalin (Baicalein 7-O-Glucuronide) and the Antidiabetic Drug Metformin” (Pharmaceutics, 2022):
Read-outs that look alike come from different tables or passages of the source. Marks after values point to notes of the source that are not given here.

How the values were obtained:
[1] = DPPH radical scavenging assay; settings: for pD2 (−log EC50) antiradical potency: 70 µM DPPH, 60 min
Experimental: The free radical scavenging activity of the samples was measured using the DPPH^• method. Sample solutions were prepared and added to 70 µM DPPH^•; the mixtures were kept in the dark for 60 min and absorbance was read at 517 nm using a Beckman Coulter DU 8005 spectrophotometer (Fullerton, CA, USA). The radical scavenging capacity was expressed as a percentage effect.

[2] = ORAC assay; settings: 5.0 µM compound
Experimental: The radical oxygen absorption capacity (ORAC) assay was performed as previously described. Briefly, trolox was prepared in phosphate buffer over a concentration range of 6.25 to 50 µM. In 24–well plates, 1.5 mL of fluorescein (0.08 µM) was added, followed by 250 µL of trolox for the control, 250 µL of buffer for the blank, and 250 µL of each inhibitor (5.0 µM). After 10 min of incubation, at 37 °C, 250 µL of 0.15 M AAPH was added. Successively, the PerkinElmer Victor Nivo microplate reader (Waltham, MA, USA) was settled for a fluorescence kinetic reading at 37 °C for one hour, with excitation and emission wavelengths, respectively, of 485 and 530 nm. The results were expressed in TEAC (trolox equivalent antioxidant capacity, TE µmol/µmol compound).

[3] = tested on: BSA; experiment: BSA assay (AGE formation by fluorescence); design: species or system bovine; settings: for concentration inhibiting glyoxal-induced BSA glycation: 50 mg/mL BSA + 0.003 M glyoxal
Experimental: Glycated BSA was obtained according to a previously reported method. Briefly, AGEs were detected using BSA (50 mg/mL, pH 7.4), as protein substrate, and glucose (0.8 M), glyoxal (0.003 M) or ribose (0.1 M), as glycation agents. […] The fluorescence intensity was measured at an excitation wavelength of 355 nm and an emission wavelength of 460 nm with a PerkinElmer Victor Nivo microplate reader (Waltham, MA, USA). Inhibition of AGE formation was calculated as the fluorescence difference between glycation under the control condition and in the presence of each inhibitor. Aminoguanidine (2.5 mM, AG) was used as a positive control.

[4] = tested on: HT–29 cells; experiment: MTT cell viability assay; type: cell-based, human
Experimental: Cell viability was assessed with the MTT assay. HT–29 cells were seeded in a 96–well plate at a density of 5000 cells in each well and allowed to grow overnight. The cells were treated with various concentrations of the substances. After 24 h of incubation, an aliquot of MTT solution was added to each well, to reach the final concentration of 500 μg/mL. Subsequently, after the MTT reduction by cellular enzymes, the medium was removed and the insoluble formazan salts were solubilized with 2–propanol. The absorbance of each purple formazan solution was measured using a PerkinElmer Victor Nivo microplate reader (Waltham, MA, USA), at a wavelength of 520 nm.

[5] = GK peptide–ribose assay (peptide cross–linking); settings: 2 days; for reduction of GK peptide cross–linking (in words): 1–100 µM
Experimental: The N–acetyl–glycyl–lysine methyl ester (GK) peptide–ribose assay was performed with some modifications to a published method. Briefly, GK peptide (27 mg/mL), a synthetic model peptide, was incubated with 40 mg/mL (0.27 M) D–ribose in sodium phosphate buffer (pH 7.4) and test samples were added at final concentrations ranging from 1.0–100 μM. After 48 h of incubation, fluorescence was read at 355 and 460 nm for excitation and emission wavelengths, respectively, with a PerkinElmer Victor Nivo microplate reader (Waltham, MA, USA). The fluorescence measurement allows the calculation of GK peptide glycation inhibition as a percentage difference between the control condition and glycation in the presence of the inhibitor. Aminoguanidine (2.5 mM, AG) was used as a positive control.

[6] = target: α–glucosidase; settings: cited from earlier work
[7] = tested on: α–glucosidase (EC 3.2.1.20, Saccharomyces cerevisiae type I); type: biochemical; settings: for inhibition of α–glucosidase activity: 50 µM compound
Experimental: The inhibitory activity of baicalein and baicalin was studied using the yeast α–glucosidase assay, using pNPG as a substrate. The enzyme acts by hydrolyzing pNPG into […] and p–nitrophenol (yellow); the reaction was detected at different inhibitor concentrations by variation in chromatic intensity. Acarbose ([…]) was used as a positive control. Each sample was incubated with several α–glucosidase concentrations (0.035, 0.05, 0.07 and 0.1 µM) in PBS solutions (pH 6.8) for 10 min, at 37 °C. The reaction started with the addition of pNPG. Absorbance values were detected at 405 nm for 60 min, using a PerkinElmer Victor Nivo microplate reader spectrophotometer (Waltham, MA, USA). The half–maximal inhibitory concentration (IC50) was estimated by the plot of relative enzyme activity versus inhibitor concentration. The type of enzyme inhibition exerted by baicalein was evaluated from kinetic studies using different substrate concentrations (0.5, 1.0, 1,5 and 2.0 mM pNPG) through the Michaelis–Menten and Lineweaver–Burk plots.

[8] = target: rat α–glucosidase; settings: cited from earlier work
[9] = tested on: BSA; experiment: Carbonyl content assay (BSA–ribose glycation); design: species or system bovine; settings: 50 mg/mL BSA + 0.1 M ribose; for inhibition of carbonyl increase: not concentration dependent
Experimental: The total protein–bound carbonyl content was determined by derivatization of the carbonyl group with 2,4–dinitrophenylhydrazine (DNPH), which leads to the formation of a stable dinitrophenylhydrazone product, which was monitored spectrophotometrically at 375 nm with a PerkinElmer Victor Nivo microplate reader (Waltham, MA, USA). Glycated BSA samples were mixed with DNPH solution (10 mM in 2.0 M HCl) for 1 h at 37 °C in the dark. The proteins were precipitated with 20% trichloroacetic acid. The mixture was centrifuged at 10,000× g rpm, 10 min at 4 °C, to obtain a pellet and the supernatant was removed. DNPH was removed by extracting the pellet twice using a solution of ethyl acetate/ethanol (1:1). Lastly, the pellet was dissolved in guanidine hydrochloride (6 M) before reading the absorbance at 375 nm. The concentration of DNPH derivatized proteins was determined by the molar extinction coefficient of 22,000 M^−1 cm^−1 [64]. The protein concentration was measured using a BCA assay, and the protein carbonyl concentration was expressed as nmol/mg of protein. Aminoguanidine (2.5 mM, AG) was used as a positive control.

[10] = tested on: HT–29 cells; experiment: HT–29 uptake assay (HPLC–DAD); type: in vitro ADME, human; settings: 1 to 50 µM in cell medium, 30 min–3 h
Experimental: To evaluate the cellular uptake of compounds, a previously described method was used. Briefly, HT–29 cells were seeded in a 6–well plate at a density of 500,000 cells in each well in a complete medium and allowed to grow until confluence for 48 h, at 37 °C (Figure 11). […] After incubation, an aliquot of the extracellular solution was taken from each well and stored at −20 °C for further analysis. The medium was then removed, the cells were washed with PBS and prepared for the following steps: (i) protein quantification, cells were lysed with 200 μL of lysis buffer and the wells were washed with 200 μL of PBS; and (ii) evaluation of cell uptake, cells were gently scraped with PBS, centrifuged at 1250× g rpm for 5 min, and added with 500 μL of 80% v/v methanolic solution in water/0,1% v/v acetic acid to extract intracellular content. The samples were kept on ice for 15 min, then sonicated and centrifuged at 20,000× g rpm for 10 min. […]
Chromatographic analyses were performed with an HPLC instrument (Waters Corporation, Milford, DE, USA) equipped with a 1525 binary HPLC pump and a 2998 photodiode array detector. […] Peaks were detected in the range of 210–400 nm. […] The amount of each compound was calculated using a standard calibration curve. The protein content of the lysate was detected using the Lowry protein assay, to express the results as nmol/mg protein.

[11] = 50 mg/mL BSA + 0.1 M ribose, 5 days
[12] = 50 mg/mL BSA + 0.8 M glucose, 7 days
[13] = α–glucosidase 0.035 µM, 2 mM pNPG
[14] = α–glucosidase 0.05 µM, 2 mM pNPG
[15] = α–glucosidase 0.07 µM, 2 mM pNPG
[16] = α–glucosidase 0.10 µM, 2 mM pNPG

CC(=O)N[C@@H](CS)C(=O)O [NAC, N–acetylcysteine]
pD2 (−log EC50) antiradical potency [1]: 4.38 ± 0.02 | TEAC (trolox equivalent antioxidant capacity) [2]: 1.45 ± 0.01 µmol TE/µmol

O=C1O[C@H]([C@@H](O)CO)C(O)=C1O [ascorbic acid]
pD2 (−log EC50) antiradical potency [1]: 4.77 ± 0.04 | TEAC (trolox equivalent antioxidant capacity) [2]: 0.65 ± 0.01 µmol TE/µmol

O=c1cc(-c2ccccc2)oc2cc(O)c(O)c(O)c12 [baicalein, 5,6,7–trihydroxyflavone]
concentration inhibiting glyoxal-induced BSA glycation ([3]; 7 days): 10 µM | concentration from which glycated albumin is reduced [3, 11]: 5 µM | concentration from which AGE formation is significantly inhibited [3, 12]: 5 µM | pD2 (−log EC50) antiradical potency [1]: 4.91 ± 0.01 | change of cell viability ([4]; 5 µM): −25 % of the control | IC50 ([4]; Homo sapiens, HT-29, 0.1 to 50 µM, 24 h, read-out: pD2 for inhibition of HT–29 cell viability (converted)): 36.3 µM | pD2 of AGE formation (GK cross–linking) ([5]; GK peptide + ribose): 4.3 | IC50 ([5]; GK peptide + ribose, read-out: IC50 of AGE formation (GK cross–linking)): 49.7 ± 0.5 µM | Ki ([6]; ref 53): 45 µM | Ki ([6]; ref 54): 44 µM | TEAC (trolox equivalent antioxidant capacity) [2]: 5.41 ± 0.33 µmol TE/µmol | inhibition of α–glucosidase activity ([7]; 0.035 µM α–glucosidase): about 90% | inhibition of α–glucosidase activity ([7]; 0.05 µM α–glucosidase): ~75% | type of enzyme inhibition ([7]; Lineweaver–Burk plot, 0.05 µM enzyme, 0.5–2.0 mM pNPG): mixed–type | Ki ([7]; mixed–model inhibition, 0.05 µM enzyme, 0.5–2.0 mM pNPG, read-out: inhibition constant (Ki)): 25.9 µM | IC50 [7, 13]: 18.1 µM | pD2 (−Log IC50) [7, 13]: 4.74 ± 0.02 ^a | IC50 [7, 14]: 24.1 µM | pD2 (−Log IC50) [7, 14]: 4.62 ± 0.04 ^a | IC50 [7, 15]: 51.6 µM | pD2 (−Log IC50) [7, 15]: 4.29 ± 0.07 ^a | IC50 [7, 16]: 555 µM | pD2 (−Log IC50) [7, 16]: 3.26 ± 0.26 ^b | Ki ([8]; ref 49): 14.6 µM | concentration range with detectable reduction of carbonyl increase [9]: 10 to 100 µM | inhibition of carbonyl increase [9]: 15–25% | parent compound after incubation with cells (in words) [10]: no longer measurable

O=C(O)[C@H]1O[C@@H](Oc2cc3oc(-c4ccccc4)cc(=O)c3c(O)c2O)[C@H](O)[C@@H](O)[C@@H]1O [baicalin, 7–β–D–glucuronic acid of 5,6–trihydroxyflavone]
concentration inhibiting glyoxal-induced BSA glycation ([3]; 7 days): 5 µM | concentration from which glycated albumin is reduced [3, 11]: 5 µM | concentration from which AGE formation is significantly inhibited [3, 12]: 5 µM | pD2 (−log EC50) antiradical potency [1]: 4.89 ± 0.03 | reduction of GK peptide cross–linking (in words) [5]: only slightly and not significantly reduced | TEAC (trolox equivalent antioxidant capacity) [2]: 5.90 ± 0.23 µmol TE/µmol | effect on α–glucosidase activity (in words) ([7]; 0.05 µM enzyme, 2 mM pNPG, 1–100 µM compound): did not induce any modification | IC50 ([8]; in vitro): > 400 µM | concentration range with detectable reduction of carbonyl increase [9]: 10 to 100 µM | lowest concentration tested that inhibited carbonyl formation [9]: 5 µM | inhibition of carbonyl increase [9]: 15–25%

CN(C)C(=N)NC(=N)N [metformin, 1,1–dimethylbiguanide]
inhibition of AGE formation (in words) [3, 11]: did not achieve any protection | inhibition of AGE formation (in words) [3, 12]: did not show any significant inhibition | inhibition of AGE formation (in words) ([3]; 1–100 µM, glucose, glyoxal and ribose (Figure 3)): did not show a significant effect | DPPH scavenging effect (in words) ([1]; 0.1 to 500 µM): did not show any scavenging effect | reduction of GK peptide cross–linking (in words) [5]: not active | TEAC (trolox equivalent antioxidant capacity) [2]: 0.48 ± 0.10 µmol TE/µmol
